Structures can show the parent of a compound that is named as a salt.
These molecules were tested against T1, URAT-1 transporter (Homo sapiens, UniProt Q96S37) (assay: URAT-1 inhibitor activity: [14C]-uric acid uptake into CHO-URAT1(L)GFP#8 (CHO#8) cells, scintillation proximity). Conditions: not given.
T1 construct: expressed in transfected cells
Format: cell-based
Source text: The nucleotide sequence for the long isoform of URAT1 (NM_144585) was C-terminally fused to that of enhanced green fluorescent protein (eGFP) (hereinafter referred to as URAT1(L)GFP). The combined sequence was codon-optimised and custom synthesized. The synthesized sequence was generated in pDONR221 Gateway entry vector (Invitrogen Life Technologies) prior to cloning in pLenti6.3/V5 Gateway destination vector (Invitrogen Life Technologies).
Lentiviral particles were generated according to ViraPower HiPerform expression system procedure (Invitrogen Life Technologies) and used to transduce CHO cells. Blasticidin selection enabled the generation of a stable clonal pool of cells, confirmed by expression of GFP and V5 epitope. The clonal pools were sorted using fluorescence-activated cell sorting (FACS) on the basis of GFP expression with the gating set at the top 50% of expression into single cells which were subsequently expanded to generate clonal lines. […] This cell line was used for all screening activities and is referred to as CHO-URAT1(L)GFP#8 or CHO#8.
The potency of the compounds of formula (I) as inhibitors of the URAT-1 transporter was determined as follows.
CHO#8 cells were cultured in cell line maintenance flasks in medium consisting of Dulbecco's modified Eagle medium (DMEM) with high glucose and sodium pyruvate (4.5 g of glucose per litre, Invitrogen Life Technologies), supplemented with heat-inactivated foetal bovine serum (FBC, 10% v/v), 1×NEAA (non-essential amino acids) and blasticidin (10 μg/ml). Cultures were grown in 175 cm^2 tissue culture flasks in a humidified incubator at approximately 37° C. in approximately 95% air/5% CO2. Near confluent CHO#8 cell cultures were harvested by trypsinisation, re-suspended in culture medium and the process was repeated once or twice weekly to provide sufficient cells for use.
Assay ready flasks were generated by the same method, except the cells were not cultured in blasticidin.
Assay ready frozen cells were generated by freezing 40,000,000 cells in 1 ml of FBS (without blasticidin) containing 10% DMSO per vial. One vial was sufficient for 5 assay plates. Each vial was thawed rapidly to 37° C., washed and re-suspended in pre-warmed culture medium for seeding onto assay plates.
CHO#8 cells were seeded onto Cytostar™ 96-well plates at a density of […]. The cells were cultured for 1 day at approximately 37° C. in a humidified incubator containing approximately 5% CO2 in air. After approximately 24 hours culture, cells were used for uptake experiments.
On the day of assay, culture medium was removed from the wells and the cells were washed once with 50 μL of chloride-containing buffer (136.7 mM NaCl, 5.36 mM KCl, 0.952 mM CaCl2, 0.441 mM KH2PO4, 0.812 mM MgSO4, 5.6 mM D-glucose, 0.383 mM Na2HPO4.2H2O, 10 mM HEPES, pH 7.4 with NaOH). The cells were pre-incubated with another 50 μL of chloride-containing buffer for one hour at approximately 37° C. in a humidified incubator containing approximately 5% CO2 in air.
Assay compound plates were prepared by diluting the compounds of formula (I) with chloride-free buffer (125 mM Na-gluconate, 4.8 mM K-gluconate, 1.3 mM Ca-gluconate, 1.2 mM KH2PO4, 1.2 mM MgSO4, 5.6 mM D-glucose, 25 mM HEPES, pH 7.4 with NaOH) in 100% DMSO to a final concentration of 1% DMSO. [^14C]-Uric Uric acid working stock was made by addition of radiolabeled compound to a final concentration of 120 nM in chloride-free buffer. In all wells, the final assay concentration of solvent (DMSO) was 0.25%; the final assay concentration of [^14C]-uric acid was 30 nM in chloride-free buffer and the final compound of formula (I) concentrations ranged from 0 to 10 μM.
After pre-incubation, cells were washed with 50 μL of chloride-free buffer and another 50 μL of chloride-free buffer was added. […]
CCc1ccc(Oc2ccc(S(=O)(=O)Nc3ncc(F)s3)cc2C#N)cc1 [Example 95, 3-cyano-4-(4-ethylphenoxy)-N-(5-fluoro-1,3-thiazol-2-yl)benzenesulfonamide] showed an IC50 of over 7.36 µM.
Work on COc1cc(Cl)ccc1Oc1cc(F)c(S(=O)(=O)Nc2ncns2)cc1Cl [Example 154, 5-chloro-4-(4-chloro-2-methoxyphenoxy)-2-fluoro-N-(1,2,4-thiadiazol-5-yl)benzenesulfonamide] yielded an IC50 of 1.63 µM.
Work on N#Cc1cc(S(=O)(=O)Nc2ncns2)ccc1Oc1cccc(C(F)(F)F)c1F [Example 53, 3-cyano-4-[2-fluoro-3-(trifluoromethyl)phenoxy]-N-(1,2,4-thiadiazol-5-yl)benzenesulfonamide] yielded an IC50 of 5.24 µM.
Work on N#Cc1cc(S(=O)(=O)Nc2ncc(F)s2)ccc1Oc1ccc(Cl)c(C(F)(F)F)c1 [Example 141, 4-[4-chloro-3-(trifluoromethyl)phenoxy]-3-cyano-N-(5-fluoro-1,3-thiazol-2-yl)benzenesulfonamide] yielded an IC50 of 0.737 µM.
For CCOc1cc(C)ccc1Oc1cc(F)c(S(=O)(=O)Nc2nncs2)cc1Cl [compound 331], the IC50 was over 6.72 µM.
In the case of O=S(=O)(Nc1ncns1)c1cc(F)c(Oc2ccc(F)c(F)c2)cc1F [compound 196], the IC50 is reported as 1.58 µM.
In the case of N#Cc1cc(S(=O)(=O)Nc2ncns2)ccc1Oc1ccc(Cl)cc1OC1CCC1 [Example 30, 4-[4-chloro-2-(cyclobutyloxy)phenoxy]-3-cyano-N-(1,2,4-thiadiazol-5-yl)benzenesulfonamide diethylamine salt], the IC50 is reported as 0.609 µM.
COc1cc(F)cc(Oc2cc(F)c(S(=O)(=O)Nc3nncs3)cc2Cl)c1 [compound 297] gave an IC50 of 1.01 µM.
Molecule N#Cc1cc(S(=O)(=O)Nc2nncs2)ccc1Oc1ccc(CO)c(Cl)c1 [Example 341, 4-[3-chloro-4-(hydroxymethyl)phenoxy]-3-cyano-N-(1,3,4-thiadiazol-2-yl)benzenesulfonamide] has an IC50 of 0.009 µM.
O=S(=O)(Nc1ncns1)c1cc(F)c(Oc2ccc(F)c(F)c2)c(F)c1 [compound 198] showed an IC50 of 2.19 µM.
In the case of CCOc1cccc(Oc2ccc(S(=O)(=O)Nc3ncns3)cc2C#N)c1 [compound 280], the IC50 is reported as 2.29 µM.
In the case of N#Cc1cc(S(=O)(=O)Nc2cscn2)ccc1Oc1ccc(F)c(F)c1 [compound 228, 3-cyano-4-(3,4-difluorophenoxy)-N-(1,3-thiazol-4-yl)benzenesulfonamide], the IC50 is reported as 0.123 µM.
N#Cc1cc(S(=O)(=O)Nc2nccs2)ccc1Oc1ccc(Br)cc1CO [Example 8, 4-[4-bromo-2-(hydroxymethyl)phenoxy]-3-cyano-N-(1,3-thiazol-2-yl)benzenesulfonamide] gave an IC50 of 2.14 µM.
O=S(=O)(Nc1ncns1)c1ccc(Oc2ccc(F)c(F)c2)c(Cl)c1 [compound 202] showed an IC50 of 0.823 µM.
For N#Cc1cc(S(=O)(=O)Nc2ncc(F)s2)ccc1Oc1ccc(F)c(F)c1 [Example 248, 3-cyano-4-(3,4-difluorophenoxy)-N-(5-fluoro-1,3-thiazol-2-yl)benzenesulfonamide], the IC50 was over 1.2 µM.
N#Cc1ccc(Oc2c(F)cc(S(=O)(=O)Nc3ncns3)cc2Br)cc1Cl [Example 250, 3-bromo-4-(3-chloro-4-cyanophenoxy)-5-fluoro-N-(1,2,4-thiadiazol-5-yl)benzenesulfonamide] gave an IC50 of 1.88 µM.
O=S(=O)(Nc1nccs1)c1ccc(Oc2ccc(Cl)cc2OC(F)(F)F)c(F)c1 [Example 70, 4-[4-chloro-2-(trifluoromethoxy)phenoxy]-3-fluoro-N-(1,3-thiazol-2-yl)benzenesulfonamide] was tested, and the IC50 was over 10 µM.
Molecule N#Cc1cc(S(=O)(=O)Nc2ncc(F)s2)ccc1Oc1cc(F)cc(C(F)(F)F)c1 [Example 139, 3-cyano-N-(5-fluoro-1,3-thiazol-2-yl)-4-[3-fluoro-5-(trifluoromethyl)phenoxy]benzenesulfonamide] has an IC50 of 3.38 µM.
For N#Cc1cc(Cl)ccc1Oc1ccc(S(=O)(=O)Nc2ncns2)cc1C#N [Example 22, 4-(4-chloro-2-cyanophenoxy)-3-cyano-N-(1,2,4-thiadiazol-5-yl)benzenesulfonamide], the IC50 was 3.16 µM.
For N#Cc1cc(S(=O)(=O)Nc2ncc(Cl)s2)ccc1Oc1ccc(Cl)cc1F [Example 87, 4-(4-chloro-2-fluorophenoxy)-N-(5-chloro-1,3-thiazol-2-yl)-3-cyanobenzenesulfonamide], the IC50 was 0.415 µM.
Work on CC(C)c1cccc(Oc2cc(F)c(S(=O)(=O)Nc3nccs3)cc2F)c1 [Example 67, 2,5-difluoro-4-[3-(propan-2-yl)phenoxy]-N-(1,3-thiazol-2-yl)benzenesulfonamide] yielded an IC50 of over 7.58 µM.
COc1cc(F)cc(Oc2ccc(S(=O)(=O)Nc3ncc(F)s3)cc2C#N)c1 [Example 122, 3-cyano-4-(3-fluoro-5-methoxyphenoxy)-N-(5-fluoro-1,3-thiazol-2-yl)benzenesulfonamide] was tested, and the IC50 was 0.581 µM.
Molecule N#Cc1cc(S(=O)(=O)Nc2ncc(F)s2)ccc1Oc1ccc(CCCO)cc1 [Example 147, 3-cyano-N-(5-fluoro-1,3-thiazol-2-yl)-4-[4-(3-hydroxypropyl)phenoxy]benzenesulfonamide] has an IC50 of over 10 µM.
COc1cccc(Cl)c1Oc1ccc(S(=O)(=O)Nc2ncns2)cc1C#N [compound 263] showed an IC50 of 2.25 µM.
In the case of Cc1cc(S(=O)(=O)Nc2cscn2)c(F)cc1Oc1ccc(F)c(F)c1 [compound 223], the IC50 is reported as over 10 µM.
With CN(C)c1ccc(Oc2ccc(S(=O)(=O)Nc3nccs3)cc2C#N)cn1 [Example 186, 3-cyano-4-{[6-(dimethylamino)pyridin-3-yl]oxy}-N-(1,3-thiazol-2-yl)benzenesulfonamide] the IC50 was 1.08 µM.
With CC(C)Oc1ccc(Cl)cc1Oc1ccc(S(=O)(=O)Nc2ncns2)cc1C#N [Example 11, 4-[5-chloro-2-(propan-2-yloxy)phenoxy]-3-cyano-N-(1,2,4-thiadiazol-5-yl)benzenesulfonamide diethylamine salt] the IC50 was 1.38 µM.
With N#Cc1cc(S(=O)(=O)Nc2ncns2)ccc1Oc1ccc(Cl)cc1Cl [Example 16, 3-cyano-4-(4,6-dichlorophenoxy)-N-(1,2,4-thiadiazol-5-yl)benzenesulfonamide] the IC50 was 0.428 µM.
Molecule N#Cc1cc(S(=O)(=O)Nc2nccs2)ccc1Oc1ccc(I)cc1F [compound 178] has an IC50 of 0.645 µM.
Molecule COc1ccc(Oc2cc(F)c(S(=O)(=O)Nc3nncs3)cc2Cl)c(Cl)c1 [compound 317] has an IC50 of 1.63 µM.
In the case of N#Cc1cc(S(=O)(=O)Nc2nccs2)ccc1Oc1cccc(CO)c1 [compound 177], the IC50 is reported as 0.584 µM.
Molecule COc1cccc(F)c1Oc1ccc(S(=O)(=O)Nc2ncns2)cc1C#N [compound 265] has an IC50 of 2.43 µM.
For N#Cc1cc(S(=O)(=O)Nc2ncc(Cl)s2)ccc1Oc1ccccc1F [Example 84, N-(5-chloro-1,3-thiazol-2-yl)-3-cyano-4-(2-fluorophenoxy)benzenesulfonamide], the IC50 was 0.681 µM.
Work on COc1ccc(Oc2ccc(S(=O)(=O)Nc3ncns3)cc2C#N)cn1 [Example 20, 3-cyano-4-[(6-methoxypyridin-3-yl)oxy]-N-(1,2,4-thiadiazol-5-yl)benzenesulfonamide] yielded an IC50 of over 7.52 µM.
N#Cc1cc(S(=O)(=O)Nc2ncc(F)s2)ccc1Oc1cccc(Cl)c1F [Example 119, 4-(3-chloro-2-fluorophenoxy)-3-cyano-N-(5-fluoro-1,3-thiazol-2-yl)benzenesulfonamide] gave an IC50 of 1.57 µM.
N#Cc1ccc(Oc2c(F)cc(S(=O)(=O)Nc3ncns3)cc2F)cc1Cl [compound 215] gave an IC50 of over 10 µM.

Same assay, conditions: inhibition of [14C]-uric acid (30 nM) uptake into CHO#8 cells; compound 0 to 10 μM; 4 parameter logistic fit
“5-chloro-4-(3,4-difluorophenoxy)-2-fluoro-N-(1,3-thiazol-4-yl)benzenesulfonamide [compound 230]” gave an IC50 of 0.747 µM.
